Earlier results on 1 compound are cited in patent US20210244731A1, “TABLET CONTAINING ANTITUMOR AGENT” (FUJIFILM Corporation, priority 2018, published 2021).

The data set deals with T1, FLT3 (Homo sapiens, UniProt P36888).
T1 sequence (P36888 27-993): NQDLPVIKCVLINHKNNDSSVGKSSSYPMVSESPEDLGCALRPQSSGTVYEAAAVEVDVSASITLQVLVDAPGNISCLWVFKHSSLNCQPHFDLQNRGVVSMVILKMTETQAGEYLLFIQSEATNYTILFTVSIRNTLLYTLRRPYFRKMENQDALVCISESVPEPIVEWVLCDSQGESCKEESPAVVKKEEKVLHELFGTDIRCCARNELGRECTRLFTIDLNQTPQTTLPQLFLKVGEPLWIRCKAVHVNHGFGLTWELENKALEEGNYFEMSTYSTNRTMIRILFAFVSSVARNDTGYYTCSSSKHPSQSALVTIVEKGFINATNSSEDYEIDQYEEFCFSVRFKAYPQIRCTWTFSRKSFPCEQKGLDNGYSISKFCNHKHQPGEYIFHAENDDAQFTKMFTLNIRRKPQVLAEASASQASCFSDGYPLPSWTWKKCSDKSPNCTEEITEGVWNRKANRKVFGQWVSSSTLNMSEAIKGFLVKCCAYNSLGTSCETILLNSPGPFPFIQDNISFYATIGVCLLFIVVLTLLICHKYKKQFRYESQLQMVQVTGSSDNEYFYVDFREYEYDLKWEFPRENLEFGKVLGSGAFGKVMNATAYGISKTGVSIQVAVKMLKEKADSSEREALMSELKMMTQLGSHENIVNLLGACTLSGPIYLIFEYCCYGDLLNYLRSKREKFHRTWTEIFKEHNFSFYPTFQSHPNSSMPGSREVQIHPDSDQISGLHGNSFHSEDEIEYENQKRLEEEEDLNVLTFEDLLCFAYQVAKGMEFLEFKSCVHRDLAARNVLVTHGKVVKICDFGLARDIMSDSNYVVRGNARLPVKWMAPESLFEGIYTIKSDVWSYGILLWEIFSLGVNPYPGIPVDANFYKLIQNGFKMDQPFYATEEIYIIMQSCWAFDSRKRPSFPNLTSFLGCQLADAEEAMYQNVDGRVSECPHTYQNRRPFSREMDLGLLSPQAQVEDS
The conditions noted are these: statement of background, WO2015/056683A.

Take `CCCNc1nc(Nc2ccc(C#N)cc2)ncc1C#CCCCNC(=O)[C@H](C)N(C)C(=O)/C=C/CN(C)C` [Compound A, (S,E)-N-(1-((5-(2-((4-cyanophenyl)amino)-4-(propylamino)pyrimidin-5-yl)-4-pentyn-1-yl)amino)-1-oxopropan-2-yl)-4-(dimethylamino)-N-methyl-2-butenamide]: the FLT3 inhibitory action entry was “FLT3 inhibitory action”.
